Assay results taken from patent US20250255889A1, “METHODS FOR TREATMENT SELECTION FOR CHRONIC LYMPHOCYTIC LEUKEMIA (CLL)” (The Broad Institute, Inc., priority 2022, published 2025).

Test system: primary CLL samples (CD19+ and CD5+ cells)
Test: High-throughput dynamic BH3 profiling (HT-DBP): drug-induced apoptotic priming (delta priming), cytochrome c release after BH3 peptide
Type: cell-based, human
Method in brief: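 Primary CLL cells (CD19+/CD5+) are treated with the agent or DMSO carrier, then briefly exposed to a fixed concentration of a promiscuous BH3 peptide such as BIM. Mitochondrial cytochrome c release serves as the priming surrogate. Delta priming is drug-treated priming minus DMSO-treated priming, run in high-throughput format.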

[1] = peptide PUMA 1 uM, feature loss_3p21.31
[2] = peptide MS1 2.5 uM, feature m-CLL
[3] = peptide PUMA 1 uM, feature i-CLL
[4] = peptide BAD 0.3 uM, feature ITIH2
[5] = peptide BAD 0.3 uM, feature i-CLL
[6] = peptide BAD 0.3 uM, feature BIRC3
[7] = peptide BAD 0.3 uM, feature loss_9p21.3
[8] = peptide BAD 0.3 uM, feature loss_17q11.2
[9] = peptide BIM 0.01 uM, feature BCOR
[10] = peptide BIM 0.01 uM, feature n-CLL
[11] = peptide MS1 2.5 uM, feature SAMHD1
[12] = peptide MS1 2.5 uM, feature BIRC3
[13] = peptide MS1 2.5 uM, feature ITIH2
[14] = peptide MS1 2.5 uM, feature loss_9p21.3
[15] = peptide MS1 2.5 uM, feature loss_17q11.2

## C=CC(=O)Nc1cc(Nc2nccc(-c3cn(C)c4ccccc34)n2)c(OC)cc1N(C)CCN(C)C [Osimertinib]
Peptide BAD 0.3 uM, feature IGLV321_R110
  direction: Resistant
Peptide BAD 0.3 uM, feature MYD88
  direction: Resistant
Peptide BAD 0.3 uM, feature NOTCH1
  direction: Resistant
Peptide BAD 0.3 uM, feature RPS15
  direction: Resistant
Peptide BAD 0.3 uM, feature loss_6q
  direction: Resistant
Peptide BIM 0.01 uM, feature BIRC3
  direction: Sensitive
Peptide BIM 0.01 uM, feature EC-u2
  direction: Sensitive
Peptide BIM 0.01 uM, feature IGLV321_R110
  direction: Resistant
Peptide BIM 0.01 uM, feature NOTCH1
  direction: Resistant
Peptide BIM 0.01 uM, feature RPS15
  direction: Resistant
Peptide BIM 0.01 uM, feature loss_6q
  direction: Resistant
Peptide BIM 0.01 uM, feature loss_9p21.3
  direction: Sensitive
Peptide BIM 0.01 uM, feature loss_17q11.2
  direction: Sensitive
Peptide MS1 2.5 uM, feature EC-i
  direction: Resistant
Peptide MS1 2.5 uM, feature IGLV321_R110
  direction: Resistant
Peptide MS1 2.5 uM, feature NOTCH1
  direction: Resistant
Peptide MS1 2.5 uM, feature RPS15
  direction: Resistant
Peptide MS1 2.5 uM, feature loss_6q
  direction: Resistant
Peptide PUMA 1 uM, feature BIRC3
  direction: Sensitive
Peptide PUMA 1 uM, feature MYD88
  direction: Resistant
[1]
  direction: Resistant
Peptide PUMA 1 uM, feature loss_9p21.3
  direction: Sensitive
Peptide PUMA 1 uM, feature loss_17q11.2
  direction: Sensitive

## O=C(CCCCCCNC(=O)c1cnc(N(c2ccccc2)c2ccccc2)nc1)NO [Ricolinostat]
Peptide BAD 0.3 uM, feature CARD11
  direction: Sensitive
Peptide BIM 0.01 uM, feature i-CLL
  direction: Resistant
Peptide BIM 0.01 uM, feature loss_15q15.1b
  direction: Resistant
Peptide BIM 0.01 uM, feature loss_20p11.22
  direction: Resistant
Peptide MS1 2.5 uM, feature CNOT3
  direction: Sensitive
Peptide MS1 2.5 uM, feature loss_10q24.32
  direction: Resistant
[2]
  direction: Sensitive
Peptide PUMA 1 uM, feature CARD11
  direction: Sensitive
Peptide PUMA 1 uM, feature gain_16p11.2
  direction: Resistant
[3]
  direction: Resistant
Peptide PUMA 1 uM, feature loss_1q21.3
  direction: Resistant
Peptide PUMA 1 uM, feature loss_2q31.1
  direction: Resistant
[1]
  direction: Resistant
Peptide PUMA 1 uM, feature loss_5p15.33
  direction: Resistant
Peptide PUMA 1 uM, feature loss_7p22.2
  direction: Resistant
Peptide PUMA 1 uM, feature loss_10p12.2
  direction: Resistant
Peptide PUMA 1 uM, feature loss_12p13.31a
  direction: Resistant
Peptide PUMA 1 uM, feature loss_14q32.12
  direction: Resistant
Peptide PUMA 1 uM, feature loss_15q15.1b
  direction: Resistant
Peptide PUMA 1 uM, feature loss_16q22.1
  direction: Resistant
Peptide PUMA 1 uM, feature loss_17p13.3
  direction: Resistant
Peptide PUMA 1 uM, feature loss_20p11.22
  direction: Resistant
Peptide PUMA 1 uM, feature m-CLL
  direction: Sensitive

## O=C(/C=C\n1cnc(-c2cc(C(F)(F)F)cc(C(F)(F)F)c2)n1)NNc1cnccn1 [Selinexor]
Feature MYD88
  direction: Sensitive
[4]
  direction: Sensitive
Peptide BIM 0.01 uM, feature MYD88
  direction: Sensitive
Peptide PUMA 1 uM, feature loss_7q36.1
  direction: Sensitive
Peptide PUMA 1 uM, feature loss_8p
  direction: Sensitive

## CNC(=O)c1cc(Oc2ccc(NC(=O)Nc3ccc(Cl)c(C(F)(F)F)c3)cc2)ccn1 [Sorafenib]
Peptide BAD 0.3 uM, feature GNB1
  direction: Sensitive
Peptide BAD 0.3 uM, feature RFX7
  direction: Sensitive
Peptide BAD 0.3 uM, feature ZMYM3
  direction: Sensitive
[5]
  direction: Resistant
Peptide BIM 0.01 uM, feature FBXW7
  direction: Resistant
Peptide BIM 0.01 uM, feature GNB1
  direction: Sensitive
Peptide BIM 0.01 uM, feature RFX7
  direction: Resistant
Peptide BIM 0.01 uM, feature ZMYM3
  direction: Resistant
Peptide BIM 0.01 uM, feature gain_19p13.3
  direction: Resistant
Peptide BIM 0.01 uM, feature loss_2q31.1
  direction: Resistant
Peptide BIM 0.01 uM, feature loss_10p12.2
  direction: Resistant
Peptide MS1 2.5 uM, feature RFX7
  direction: Resistant
Peptide MS1 2.5 uM, feature ZMYM3
  direction: Resistant
Peptide MS1 2.5 uM, feature gain_19p13.3
  direction: Resistant
Peptide MS1 2.5 uM, feature loss_2q31.1
  direction: Resistant
Peptide MS1 2.5 uM, feature loss_10p12.2
  direction: Resistant
Peptide MS1 2.5 uM, feature loss_10q24.2
  direction: Resistant
Peptide MS1 2.5 uM, feature loss_11q22.3
  direction: Resistant
[2]
  direction: Sensitive
Peptide MS1 2.5 uM, feature priortrt_Post
  direction: Resistant
Peptide PUMA 1 uM, feature FBXW7
  direction: Resistant
Peptide PUMA 1 uM, feature RFX7
  direction: Resistant
Peptide PUMA 1 uM, feature ZMYM3
  direction: Resistant

## O=C(CCCCCCC(=O)Nc1ccccc1)NO [Vorinostat]
Feature EC-m2
  direction: Sensitive
Feature EC-m4
  direction: Resistant
Peptide BIM 0.01 uM, feature EC-m2
  direction: Sensitive
Peptide BIM 0.01 uM, feature EC-m4
  direction: Resistant
Peptide PUMA 1 uM, feature EC-m2
  direction: Sensitive
[3]
  direction: Resistant
Peptide PUMA 1 uM, feature loss_6q21
  direction: Sensitive

## CN1CC[C@@H](c2c(O)cc(O)c3c(=O)cc(-c4ccc(C(F)(F)F)cc4Cl)oc23)[C@@H]1CO [Voruciclib]
[6]
  direction: Sensitive
  dprim_pearson_corr: 0.3672
[4]
  direction: Sensitive
  dprim_pearson_corr: 0.3672
[5]
  direction: Sensitive
  dprim_pearson_corr: 0.4321
[7]
  direction: Sensitive
  dprim_pearson_corr: 0.3672
[8]
  direction: Sensitive
  dprim_pearson_corr: 0.3672
[9]
  direction: Resistant
  dprim_pearson_corr: −0.4056
[10]
  direction: Resistant
  dprim_pearson_corr: −0.3372
[11]
  direction: Resistant
  dprim_pearson_corr: −0.3337
Peptide PUMA 1 uM, feature SF3B1
  direction: Resistant
[3]
  direction: Sensitive

## fludarabine
IGHV mutated CLLs, FDR<0.1, t-test
  response (apoptotic priming): significant response
[12]
  direction: Sensitive
  dprim_pearson_corr: 0.4431
[13]
  direction: Sensitive
  dprim_pearson_corr: 0.5036
[14]
  direction: Sensitive
  dprim_pearson_corr: 0.4431
[15]
  direction: Sensitive
  dprim_pearson_corr: 0.4431
